The results in this text go back to patent US6600063B1, “Derivatives of phenyl 4-aminosalicylate and method of making the same” (priority 2000, dated 2003).

In brackets after ≈: the same amount, converted by molar mass.

Experiment in all cases: microbe, parasite or virus in culture
Type in all cases: cell-based

For test [1], the system named is M. tuberculosis ETA-R strain. Conditions: Mycobacterium tuberculosis, read-out: MIC ETA-R (ug/ml).
Test [2] concerns M. tuberculosis strain resistant to isoniazid (ATCC 35822). Conditions: Mycobacterium tuberculosis, ATCC35822, read-out: MIC INH-R (ug/ml).
Test [3] concerns M. tuberculosis strain resistant to rifampin (ATCC 35838). To be noted: Mycobacterium tuberculosis, ATCC35838, read-out: MIC RMP-R (ug/ml).
The test system of test [4] is M. tuberculosis EMB-R strain. Conditions: Mycobacterium tuberculosis, read-out: MIC EMB-R (ug/ml).

For `O=C(Oc1ccccc1)c1ccc(NC(=S)Nc2ccccc2)cc1O` [SAMPLE ID 131326], the MIC in test [1] is 0.2 µg/mL (≈ 0.549 µM); in test [2] it was no more than 0.1 µg/mL; in test [3], 0.2 µg/mL (≈ 0.549 µM); in test [4], 0.2 µg/mL (≈ 0.549 µM).
